Measured values from the supplement of paper PMC13380429.

Tests used:
Details in all cases: 72 h
Caco-2 [1] = experiment: cell viability relative to DMSO; higher = less toxic
Calu-3 [2] = experiment: as above
HepG2 [3] = experiment: as above
U2OS [4] = experiment: as above
Vero E6 [5] = experiment: as above
Calu-3 [6] = experiment: relative viability EC50 (midpoint between 100% and the lowest measured viability); higher = less toxic
HepG2 [7] = experiment: as above
Vero E6 [8] = experiment: as above
Caco-2 [9] = experiment: drug sensitivity score (DSS) for viability; higher = more toxic; extreme values may be limits of the assay
Calu-3 [10] = experiment: as above
HepG2 [11] = experiment: as above
U2OS [12] = experiment: as above
Vero E6 [13] = experiment: as above
Caco-2 [14] = experiment: relative viability EC50 (midpoint between 100% and the lowest measured viability); higher = less toxic
U2OS [15] = experiment: as above

| SMILES | cell viability (Caco-2 [1]; 1 nM) [%] | cell viability (Caco-2 [1]; 10 nM) [%] | cell viability (Caco-2 [1]; 100 nM) [%] | cell viability (Caco-2 [1]; 1000 nM) [%] | cell viability (Caco-2 [1]; 10000 nM) [%] | cell viability (Calu-3 [2]; 1 nM) [%] | cell viability (Calu-3 [2]; 10 nM) [%] | cell viability (Calu-3 [2]; 100 nM) [%] | cell viability (Calu-3 [2]; 1000 nM) [%] | cell viability (Calu-3 [2]; 10000 nM) [%] | cell viability (HepG2 [3]; 1 nM) [%] | cell viability (HepG2 [3]; 10 nM) [%] | cell viability (HepG2 [3]; 100 nM) [%] | cell viability (HepG2 [3]; 1000 nM) [%] | cell viability (HepG2 [3]; 10000 nM) [%] | cell viability (U2OS [4]; 1 nM) [%] | cell viability (U2OS [4]; 10 nM) [%] | cell viability (U2OS [4]; 100 nM) [%] | cell viability (U2OS [4]; 1000 nM) [%] | cell viability (U2OS [4]; 10000 nM) [%] | cell viability (Vero E6 [5]; 1 nM) [%] | cell viability (Vero E6 [5]; 10 nM) [%] | cell viability (Vero E6 [5]; 100 nM) [%] | cell viability (Vero E6 [5]; 1000 nM) [%] | cell viability (Vero E6 [5]; 10000 nM) [%] | relative viability EC50 (Calu-3 [6]) [µM] | relative viability EC50 (HepG2 [7]) [µM] | relative viability EC50 (Vero E6 [8]) [µM] | drug sensitivity score (Caco-2 [9]) | drug sensitivity score (Calu-3 [10]) | drug sensitivity score (HepG2 [11]) | drug sensitivity score (U2OS [12]) | drug sensitivity score (Vero E6 [13]) | relative viability EC50 (Caco-2 [14]) [µM] | relative viability EC50 (U2OS [15]) [µM] |
| --- | --- | --- | --- | --- | --- | --- | --- | --- | --- | --- | --- | --- | --- | --- | --- | --- | --- | --- | --- | --- | --- | --- | --- | --- | --- | --- | --- | --- | --- | --- | --- | --- | --- | --- | --- |
| COC(=O)Nc1nc2cc(Sc3ccccc3)ccc2[nH]1 [fenbendazole] | 94.2 | 95.8 | 104 | 81.3 | 66.2 | 98.1 | 86.1 | 97.7 | 83.6 | 86.4 | 103 | 105 | 93.3 | 79.1 | 41 | 103 | 97.8 | 101 | 83.5 | 61.7 | 105 | 108 | 104 | 90.2 | 46.7 | > 10 | 1.39 | 1.81 | 3.8 | 1 | 5.6 | 4.1 | 4.5 | – | – |
| COc1ccc2[nH]cc(C3=CCNCC3)c2c1 | 90.7 | 107 | 99.6 | 106 | 98.4 | 92.3 | 90 | 95.1 | 96.1 | 101 | – | – | – | – | – | 95.7 | 103 | 96 | 102 | 98.8 | 101 | 98.7 | 104 | 105 | 100 | > 10 | – | > 10 | 0 | 0 | – | 0 | 0 | > 10 | > 10 |
| CC(=O)c1cc([N+](=O)[O-])c(Sc2cccc(Cl)c2Cl)s1 [P5091] | 100 | 90 | 98.8 | 87.2 | 52.1 | 110 | 93.3 | 93.5 | 96.9 | 106 | 95.7 | 97.9 | 93.3 | 105 | 93.7 | 95.9 | 97.3 | 97.9 | 96.9 | 60.4 | 99.4 | 97.5 | 97.2 | 99.7 | 90.4 | > 10 | > 10 | > 10 | 4.5 | 0 | 0 | 2.4 | 0 | – | – |
| CC(CCc1ccc(O)cc1)NCC(O)c1ccc(O)cc1 (configuration not stated) [ractopamine] | 91.9 | 84.6 | 104 | 110 | 114 | 92.8 | 87.2 | 101 | 94.4 | 115 | – | – | – | – | – | 100 | 98.1 | 99.1 | 99.2 | 101 | 115 | 102 | 101 | 99.3 | 104 | > 10 | – | > 10 | 0 | 0 | – | 0 | 0 | > 10 | > 10 |
| C[C@@H](N[C@H]1CCCC[C@@H]1NC(=O)c1ccc(Cl)cc1)c1cccc2ccccc12 [Calhex-231] | 104 | 91.7 | 91.6 | 102 | 92.9 | 91.9 | 108 | 95.9 | 109 | 85.8 | 97.9 | 101 | 95.7 | 97.9 | 68.6 | 98.7 | 96.2 | 99.8 | 94.1 | 87.3 | 103 | 104 | 102 | 98.9 | 93.4 | > 10 | – | > 10 | 0 | 0.1 | 1.7 | 0.3 | 0 | > 10 | > 10 |
| c1ccc2c(c1)CCCC2C1=NCCN1 (configuration not stated) [tetrahydrozoline] | 105 | 101 | 99 | 92.5 | 106 | 109 | 97.9 | 112 | 110 | 99.5 | 93 | 104 | 91.2 | 100 | 104 | – | – | – | – | – | 68.7 | 103 | 61.2 | 108 | 68.4 | > 10 | > 10 | – | 0 | 0 | 0 | – | 0.7 | > 10 | – |
| CC(=O)N1CCN(CCOc2ccc(C3CCN(C4=Nn5c(nnc5C(F)(F)F)CC4)CC3)cc2)CC1 [AZD3514] | 90.2 | 99.3 | 93.7 | 98.3 | 75.9 | 98.2 | 96.1 | 89.4 | 107 | 91 | 88.9 | 95.9 | 82.4 | 91.4 | 43.2 | 99.8 | 94 | 99.4 | 94.9 | 69.9 | 104 | 98.3 | 92.2 | 90.7 | 59.1 | > 10 | 1.97 | – | 1.1 | 0 | 4.5 | 2.1 | 3.4 | > 10 | – |
| Cc1ccccc1CN1C2=NCCN2C(=O)C2=C1CCN(Cc1ccccc1)C2 [TIC10] | 110 | 106 | 104 | 93.7 | 103 | 98.9 | 99.7 | 98 | 102 | 92.4 | – | – | – | – | – | – | – | – | – | – | 107 | 106 | 98.8 | 99.5 | 103 | > 10 | – | > 10 | 0 | 0 | – | – | 0 | > 10 | – |
